Counter-ions that a name gives are not always drawn.
Tested on: HBV rcDNA in HepDE19 cells
Assay: HepDE19 assay with bDNA quantitation of HBV rcDNA
Assay type: cell-based, hepatitis B virus (HBV)
Settings: HepDE19 cells, inhibition of rcDNA formation, 7 day incubation, top concentration 25 μM; read-out: DE-19 bDNA EC50

Point of comparison: `COC(=O)NC1CSc2c(C(=O)Nc3ccc(F)c(Cl)c3)cccc21` (stereo not shown) [Compound 29, O-methyl, N-(7-((3-chloro-4-fluorophenyl)carbamoyl)-2,3-dihydrobenzo[b]thiophen-3-yl) carbamate], EC50 1.6 µM. Against it:
- O=C(NC1CSc2c(C(=O)Nc3ccc(F)c(Cl)c3)cccc21)OCc1ccccn1 (stereo not shown) [Compound 28, O-pyridin-2-ylmethyl, N-(7-((3-chloro-4-fluorophenyl)carbamoyl)-2,3-dihydrobenzo[b]thiophen-3-yl) carbamate] — 2.1-fold lower, 0.76 µM
- O=C1NC(=O)C2(CCc3c(C(=O)Nc4ccc(F)c(Cl)c4)ccc(F)c32)N1 (single isomer, unassigned) [Compound 258, N-(3-chloro-4-fluoro-phenyl)-7′-fluoro-2,5-dioxo-spiro [imidazolidine-4,1′-indane]-4′-carboxamide] — 2.8-fold lower, 0.57 µM

Same assay, conditions: Hepatitis B virus, HepDE19, 168 h, HepDE19 cells, inhibition of rcDNA formation, 7 day incubation, top concentration 25 μM; read-out: DE-19 bDNA EC50

Point of comparison: `O=C(NC1CSc2c(C(=O)Nc3ccc(F)c(F)c3)cccc21)OCc1ccccn1` (single isomer, unassigned) [Compound 33, O-Pyridin-2-ylmethyl, N-(7-((3,4-difluorophenyl)carbamoyl)-2,3-dihydrobenzo[b]thiophen-3-yl) carbamate hydrochloride], EC50 1.1 µM. Against it:
- CNC(=O)NC1c2cccc(C(=O)Nc3ccc(F)c(F)c3)c2CC1O (stereo not shown) [Compound 53, N-(3,4-difluorophenyl)-2-hydroxy-1-(3-methylureido)-2,3-dihydro-1H-indene-4-carboxamide] — higher, > 25 µM
- O=C(N[C@H]1CCc2c(C(=O)Nc3ccc(F)c(Cl)c3)ccc(F)c21)OCc1ccncn1 [Compound 85, O-Pyrimidin-4-ylmethyl, N—(S)-(4-((3-chloro-4-fluorophenyl)carbamoyl)-7-fluoro-2,3-dihydro-1H-inden-1-yl) carbamate] — 1.9-fold lower, 0.58 µM
- O=C(N[C@H]1CCc2c(C(=O)Nc3ccc(F)c(Cl)c3)ccc(F)c21)c1ccncc1 [Compound 120, (S)—N-(4-((3-Chloro-4-fluorophenyl)carbamoyl)-7-fluoro-2,3-dihydro-1H-inden-1-yl)isonicotinamide] — 4.6-fold lower, 0.24 µM
- O=C(Nc1ccc(F)c(Cl)c1)c1ccc(F)c2c1CC[C@@H]2NS(=O)(=O)Cc1ccccc1 [Compound 222, (S)—N-(3-Chloro-4-fluorophenyl)-7-fluoro-1-((phenylmethyl)sulfonamido)-2,3-dihydro-1H-indene-4-carboxamide] — 3.7-fold lower, 0.3 µM
- O=C(Nc1ccc(F)c(Cl)c1)c1cccc2c1CCS2(=O)=O [Compound 273, N-(3-Chloro-4-fluorophenyl)-2,3-dihydrobenzo[b]thiophene-4-carboxamide 1,1-dioxide] — 5.2-fold lower, 0.21 µM
- O=C(N[C@H]1CCc2c(C(=O)Nc3ccc(F)c(Cl)c3)ccc(F)c21)OCc1nccs1 [Compound 92, O-Thiazol-2-ylmethyl, N—(S)-(4-((3-chloro-4-fluorophenyl)carbamoyl)-7-fluoro-2,3-dihydro-1H-inden-1-yl) carbamate] — 6.1-fold lower, 0.18 µM

Same assay, conditions: Hepatitis B virus, HepDE19, 168 h, read-out: DE-19 bDNA EC50 (μM), HepDE19 cells, inhibition of rcDNA formation, 7 day incubation, top concentration 25 μM

Point of comparison: `O=C(N[C@H]1CCc2c(C(=O)Nc3ccc(F)c(Cl)c3)ccc(F)c21)OCc1ccc2ccccc2n1` [Compound 151, O-Quinolin-2-ylmethyl, N—(S)-(4-((3-chloro-4-fluorophenyl)carbamoyl)-7-fluoro-2,3-dihydro-1H-inden-1-yl) carbamate], EC50 0.41 µM. Against it:
- COc1ccc(COC(=O)N[C@H]2CCc3c(C(=O)Nc4ccc(F)c(Cl)c4)ccc(F)c32)nc1 [Compound 107, O-(5-Methoxypyridin-2-yl)methyl, N—(S)-(4-((3-chloro-4-fluorophenyl)carbamoyl)-7-fluoro-2,3-dihydro-1H-inden-1-yl) carbamate Hydrochloride] — 2.9-fold higher, 1.2 µM
- O=C(N[C@H]1CCc2c(C(=O)Nc3ccc(F)c(Cl)c3)ccc(F)c21)OCCN1CCCCC1 [Compound 147, O-2-(Piperidin-1-yl)ethyl, N—(S)-(4-((3-chloro-4-fluorophenyl)carbamoyl)-7-fluoro-2,3-dihydro-1H-inden-1-yl) carbamate] — 2.7-fold higher, 1.1 µM
- O=C(N[C@H]1CCc2c(C(=O)Nc3ccc(F)c(Cl)c3)cccc21)OCc1ccccn1 [Compound 17] — 2.4-fold lower, 0.17 µM
- CNC(=O)N[C@@H]1c2cccc(C(=O)Nc3ccc(F)c(Cl)c3)c2C[C@H]1O [Compound 47, (1R,2R)—N-(3-Chloro-4-fluorophenyl)-2-hydroxy-1-(3-methylureido)-2,3-dihydro-1H-indene-4-carboxamide] — 27-fold higher, 11 µM
- Cc1cnc(N[C@H]2CCc3c(C(=O)Nc4ccc(F)c(Cl)c4)ccc(F)c32)nc1 [Compound 162, (S)—N-(3-Chloro-4-fluorophenyl)-7-fluoro-1-((5-methylpyrimidin-2-yl)amino)-2,3-dihydro-1H-indene-4-carboxamide] — 2.7-fold lower, 0.15 µM
- O=C1CC[C@H](COC(=O)N[C@H]2CCc3c(C(=O)Nc4ccc(F)c(Cl)c4)cccc32)N1 [Compound 21, O—((R)-5-Oxopyrrolidin-2-yl)methyl, N—((S)-4-((3-chloro-4-fluorophenyl)carbamoyl)-2,3-dihydro-1H-inden-1-yl) carbamate] — within 1.5-fold, 0.58 µM
- N#Cc1ccc(COC(=O)N[C@H]2CCc3c(C(=O)Nc4ccc(F)c(Cl)c4)ccc(F)c32)nc1 [Compound 172, O-(5-Cyanopyridin-2-yl)methyl, N—(S)-(4-((3-chloro-4-fluorophenyl)carbamoyl)-7-fluoro-2,3-dihydro-1H-inden-1-yl) carbamate] — 2.2-fold lower, 0.19 µM
- O=C(Nc1ccc(F)c(Cl)c1)c1ccc(F)c2c1CC[C@@H]2Nc1ccncn1 [Compound 196, (S)—N-(3-Chloro-4-fluorophenyl)-7-fluoro-1-(pyrimidin-4-ylamino)-2,3-dihydro-1H-indene-4-carboxamide] — 1.5-fold higher, 0.63 µM

Same assay, conditions: read-out: DE-19 bDNA EC50; HepDE19 cells, inhibition of rcDNA formation, 7 day incubation, top concentration 25 μM

Point of comparison: `CNC(=O)NC1COc2c(C(=O)Nc3ccc(F)c(F)c3)cccc21` (single isomer, unassigned) [Compound 7, N-(3,4-difluorophenyl)-3-(3-methylureido)-2,3-dihydrobenzofuran-7-carboxamide], EC50 1.9 µM. Against it:
- CC1(C)Cc2c(C(=O)Nc3ccc(F)c(Cl)c3)ccc(F)c2C1NC(=O)OCc1ccccn1 (stereo not shown) [Compound 136, O-Pyridin-2-ylmethyl, N-(4-((3-chloro-4-fluorophenyl)carbamoyl)-7-fluoro-2,2-dimethyl-2,3-dihydro-1H-inden-1-yl) carbamate] — 6.6-fold lower, 0.29 µM
- COC(=O)NC1CSc2c(C(=O)Nc3ccc(F)c(F)c3)cccc21 (single isomer, unassigned) [Compound 30, O-Methyl, N-(7-((3,4-difluorophenyl)carbamoyl)-2,3-dihydrobenzo[b]thiophen-3-yl)carbamate] — within 1.5-fold, 1.8 µM
- COC(=O)NC1CSc2c(C(=O)Nc3ccc(F)c(Cl)c3)ccc(F)c21 (stereo not shown) [Compound 58, O-Methyl, N-(7-((3-chloro-4-fluorophenyl)carbamoyl)-4-fluoro-2,3-dihydrobenzo[b]thiophen-3-yl) carbamate] — 2.4-fold lower, 0.79 µM
- CNC(=O)NC1COc2c(C(=O)Nc3ccc(F)c(F)c3)cccc21 (single isomer, unassigned) [Compound 8, N-(3,4-difluorophenyl)-3-(3-methylureido)-2,3-dihydrobenzofuran-7-carboxamide] — 12-fold higher, 23 µM
- CNC(=O)NC1c2c(F)ccc(C(=O)Nc3ccc(F)c(Cl)c3)c2CC1(C)C (single isomer, unassigned) [Compound 134, N-(3-Chloro-4-fluorophenyl)-7-fluoro-2,2-dimethyl-1-(3-methylureido)-2,3-dihydro-1H-indene-4-carboxamide] — 5.3-fold lower, 0.36 µM
